Measurements from publication PMC8355244, “A fragment-based approach identifies an allosteric pocket that impacts malate dehydrogenase activity” (Communications Biology, 2021).

Assay: Precipitation / turbidity of compound in assay buffer (600 nm)
Type: physicochemical
Details: activity screening buffer, 500 µM
Procedure: 1.3 µL of derivatives of 4-phenylthiazol-2-amine in 100% DMSO were mixed with 237.7 µL of a mastermix of WT PfMDH previously incubated with NAD+. The final compound concentration used in this screening was 500 µM in the presence of 0.5% (v/v) DMSO. The microplate was sealed with silver foil for 1-h incubation at 25–35 °C. Finally, reactions in both the samples and control wells were started upon the addition of 13.0 µL of 5 mM malate). At the end of the experiments, the reaction of the plate was spectrophotometrically assayed at 600 nm in order to identify turbidity due to the low solubility of the compound. All measurements were performed in duplicate.

## CC(C)c1ccc(-c2csc(N)n2)cc1 [compound 10a]
  precipitation of compound in the buffer: precipitation of compound was observed
